Assay results taken from publication doi:10.1101/139675v1, “Purification of the mammalian NgBR/hCIT cis-prenyltransferase complex: Identification of a conserved carboxyterminal RxG motif crucial for enzymatic activity” (biorxiv, 2017).

Biological target: T1, NgBR/hCIT complex (hcisPT) (Homo sapiens, UniProt Q86SQ9+Q96E22)
T1 construct: gene DHDDS; full-length; N-terminal Strep-tag on hCIT, internal 6-His tag after Gly31 of NgBR; bicistronic vector in Expi293F
T1 sequence (Q86SQ9 1-333): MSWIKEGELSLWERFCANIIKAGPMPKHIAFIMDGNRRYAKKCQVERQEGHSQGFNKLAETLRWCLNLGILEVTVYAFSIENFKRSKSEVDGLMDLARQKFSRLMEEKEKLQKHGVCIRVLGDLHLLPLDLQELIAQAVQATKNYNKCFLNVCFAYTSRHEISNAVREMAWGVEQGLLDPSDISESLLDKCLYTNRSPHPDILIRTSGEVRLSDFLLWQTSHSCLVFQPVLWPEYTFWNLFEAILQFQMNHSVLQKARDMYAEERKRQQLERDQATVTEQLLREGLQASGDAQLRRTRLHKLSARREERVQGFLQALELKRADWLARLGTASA
T1 sequence (Q96E22 1-293): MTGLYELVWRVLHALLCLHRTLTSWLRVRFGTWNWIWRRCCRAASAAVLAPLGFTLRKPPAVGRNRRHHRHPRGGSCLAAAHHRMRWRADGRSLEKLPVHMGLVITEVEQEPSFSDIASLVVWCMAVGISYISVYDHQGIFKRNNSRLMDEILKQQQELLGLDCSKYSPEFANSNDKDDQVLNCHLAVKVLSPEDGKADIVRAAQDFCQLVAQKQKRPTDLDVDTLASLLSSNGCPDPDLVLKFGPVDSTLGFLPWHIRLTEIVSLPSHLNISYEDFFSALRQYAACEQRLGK
Experiment: […]-IPP incorporation, Michaelis-Menten fit
Type: biochemical
Conditions: 50 mM Tris-HCl pH 8, 1 mM MgCl2, 1% phosphatidylinositol, 37 C

SMILES | Km (100 uM IPP, 0.1-50 uM FPP) | Km (50 uM FPP, 0.1-400 uM IPP, labelled compound)
CC(C)=CCC/C(C)=C/CC/C(C)=C/COP(=O)(O)OP(=O)(O)O [FPP] | steady state kinetic parameters were measured for complexes containing the WT subunits, hCIT/NgBR | 
C=C(C)CCOP(=O)(O)OP(=O)(O)O [IPP] |  | steady state kinetic parameters were measured for complexes containing the WT subunits, hCIT/NgBR
